Assays:
AIA-M rat model = assay: Histology of knee joints of AIA-M rats (H&E, safranin O fast green, Masson trichrome); assay type: in vivo; settings: all p < 0.05
Description: The viscera indexes were calculated by the weight of the thymus, spleen, liver, and kidney relative to total […]. Histological changes were examined using hematoxylin and eosin (H&E), safranin O-fast green (Solarbio, Beijing, China), and Masson trichrome staining (Baso, Wuhan, China) according to routine protocols. Please see detailed information on the protocol in Supplementary Materials Section 5 . […]
after BHGZD administration (5), respectively.
The rats were acclimatized to an apparatus consisting of individual perspex boxes. With the aid of syringe (1mL), 500μL acetone was sprayed gently from a short distance to the middle of the plantar surface of hind paw. […] The amount of time that rats were licking and/or shaking the hind paw was recorded during 5min after acetone application and was used as an index of nocifensive response for cold hypersensitivity (6). The licking and/or shaking time was measured at 0, 5, 10, 15, 25th day after BHGZD administration, […]
For thermal-induced hyperalgesia, the rats were placed for 30minin an apparatus consisting of individual perspex boxes with Hargreaves radiant heat apparatus (Ugo Basile Srl, Comerio VA, Italy) and an infrared radiant heat (40W) source was directed to middle part of the plantar surface of the hind paw. […] The paw withdrawal latency was measured at 0, 5, 10, 15, 25th day after BHGZD administration, respectively. […]

[1] = system: NLRP3 inflammasome-induced pyroptosis; assay: NLRP3 inflammasome-induced pyroptosis markers in AIA-M rats (TUNEL, IHC, Western blotting, ELISA); assay type: in vivo, rat; settings: all p < 0.05
Description: The occurrence of pyroptosis in both MH7A cells and synovium tissues in AIA-M rats was determined by in situ TUNEL staining (TUNEL Andy Fluor™ 594 Apoptosis Detection Kit, ABP Biosciences, Wuhan, China) in accordance with the manufacturer’s protocol. Fluorescence images were visualized and photographed with inverted fluorescence microscopes (MF53, MSHOT, Guangzhou, China; Olympus, BX51, Tokyo, Japan). Detailed information on TUNEL assay is provided in Supplementary Materials Section 18 .
To detect the expression levels of NLPR3/ASC of the knee joints in AIA-M rats and corresponding treatment groups, immunohistochemical staining was carried out using a DAB kit (Cat No. AR1027, Boster Biological Technology Co., Ltd., Wuhan, China) and a rabbit/mouse two-step detection kit (Cat No. SV0002/SV0001, Boster Biological Technology Co., Ltd., Wuhan, China) according to the routine protocols. Immunohistochemistry quantification was performed using ImageJ (Image Progressing and Analysis in Java, version 1.42q, https://imagej.nih.gov/ij/), following the ImageJ User Guide. […]
Cell apoptosis was determined by in situ terminal deoxynucleotidyl transferase-mediated dUTP-biotin nick end-labeling reaction (TUNEL) staining (TUNEL Andy Fluor™ 594 Apoptosis Detection Kit, ABP Biosciences, Wuhan, China) in accordance with the […]

CN(Cc1cnc2nc(N)nc(N)c2n1)c1ccc(C(=O)N[C@@H](CCC(=O)O)C(=O)O)cc1 [MTX, methotrexate]
histopathological changes of knee joints (inflammatory cell infiltration, cartilage and bone destruction, synovial hyperplasia) (AIA-M rat model): apparently reversed
activities of GSDMD-NT in sera and its levels in knee joints [1]: reduced
activity of LDH in the sera [1]: significantly decreased

Reference: PMC9253268 (Frontiers in Immunology, 2022)
